The nature of data set [1]: Stability of preservative systems to autoclave (placebo solutions, pH6, 121° C.). The class given is physicochemical. Particulars: for Area percent for the unknown peak at 15 mins / Content at 15 mins (percentage of total peak area): autoclaved 15 mins; for Area percent for the unknown peak at 60 mins / Content at 60 mins (percentage of total peak area): autoclaved 60 mins; for Area percent for the unknown peak, initial / Initial content (percentage of total peak area): before autoclaving; for Content at 15 mins (percentage of total peak area) / Content at 60 mins (percentage of total peak area) / Initial content (percentage of total peak area): single paraben system, area normalisation; for Content after 15 mins (% of initial): autoclaved 15 minutes at 121° C.; for Content after 15 mins (% of initial) / Contents after 60 mins (% of initial): pH6; for Contents after 60 mins (% of initial): autoclaved 60 minutes at 121° C.; for Initial content: placebo solution pH6, before autoclaving; for stability to autoclaving (in words): up to 60 minutes at 121° C. As for the experimental part:
The five preservative systems were assessed for stability to the autoclave process. Placebo solutions were prepared at pH6, filled into 2 ml glass vials and autoclaved for 15 and 60 minutes at 121° C. A cycle time of 60 minutes was selected to mimic the most extreme conditions to which a vial on the outside of a full autoclave load could be subjected to. Solutions were prepared at pH6 since this was the target pH of the multidose dose formulation. The early experiments were performed using 2 ml flint glass vials and West #1816 Teflon faced, bromobutyl rubber stopper.
External standards of the parabens could not be prepared due to their poor aqueous solubility. The results were therefore determined by are normalization, whereby peak areas are expressed as a percentage of the total peak area of the chromatograph.
NOTE: The results are expressed as percentage of total peak area determined by area normalisation.
Area percent for the unknown peak

The subject of data set [2] is gram-positive and gram-negative bacteria, yeasts and molds. Particulars: cited from earlier work; for efficacy against gram-positive and gram-negative bacteria, yeasts and molds: over the pH range 5-7.
Data set [3] in a line: Stability of meta-cresol formulation to autoclaving. Format: physicochemical. Particulars: autoclave cycle. As for the experimental part:
To investigate this phenomenon further, the stability during autoclaving experiment was repeated on samples of the meta-cresol formulation. The degradation product content increased from 0.05% before autoclaving to 0.53% at 15 minutes then 0.93% at 60 minutes. […] Meta-cresol was therefore rejected as a possible preservative.

Data set [4] concerns bacteria, yeasts and molds. Briefly: USP test for preservative efficacy (overall). The class given is cell-based. Particulars: 1% w/w, full vials, at the time of manufacture. The protocol: The target pH of the multidose vial is 6 and limits of 5 to 7. […] Efficacy of the preservative was therefore assessed over the lower pH range 4 to 6. Vials prepared at pH4, 5 and 6 were tested for preservative efficacy according to the USP XXII 1990—“Antimicrobial Preservative Effectiveness.”
For bacteria, the acceptance criteria require that the number of organisms per mL is reduced by a factor of not less than 10^3 in 14 days and there is no increase thereafter. All three batches met these criteria for P aeruginosa, S. aureus and E. coli.
All three batches met this criterion for C. albicans and A. niger.
In summary, vials prepared at pH4, 5 and 6 all pass the USP test for preservative efficacy.

Marks after values point to notes of the source that are not given here.

Consider `COC(=O)c1ccc(O)cc1` [Methyl-Parabens, Methyl paraben], for which, in data set [1], the “Area percent for the unknown peak at 15 mins” value is recorded as “(3.7%)*”; the “Area percent for the unknown peak at 60 mins” value was “(6.5%)*”; the “Area percent for the unknown peak, initial” value was “(0.2%)*”; the “Content at 15 mins (percentage of total peak area)” value is listed as 96.3%. Besides, in data set [1], the “Content at 60 mins (percentage of total peak area)” value amounted to 93.5% and the “Initial content (percentage of total peak area)” value worked out at 99.8%.
Consider `Cc1cccc(O)c1` [Meta-Cresol, Meta-cresol], for which, in data set [2], the “efficacy against gram-positive and gram-negative bacteria, yeasts and molds” value is “good efficacy”. Further, in data set [1], the “Content after 15 mins (% of initial)” value was 100 % of initial, the “Contents after 60 mins (% of initial)” value is 100 % of initial, the Initial content is 2.6 mg/mL and the “stability to autoclaving (in words)” value is reported as “good stability with no change in preservative content”. In addition, the “compatibility with granisetron hydrochloride” value in data set [3] is reported as “incompatible”.
With `CCCOC(=O)c1ccc(O)cc1` [Propyl Parabens, Propyl paraben], in data set [1], the “Area percent for the unknown peak at 15 mins” value is 1.6%; the “Area percent for the unknown peak at 60 mins” value was 2.7%; the “Area percent for the unknown peak, initial” value was 0.6%; the “Content at 15 mins (percentage of total peak area)” value turned out to be 98.4%. Further, in data set [1], the “Content at 60 mins (percentage of total peak area)” value was 97.2% and the “Initial content (percentage of total peak area)” value turned out to be 99.4%.
Turning to `OCc1ccccc1` [Benzyl Alcohol, Benzyl alcohol], the antimicrobial preservative efficacy result in data set [4] is reported as “efficacious”. Further, the “efficacy as a function of pH” value in data set [2] (literature) is given as “decreases with increasing pH above pH5”. Further, the “efficacy against gram-positive and gram-negative bacteria, yeasts and molds” value in data set [2] is given as “moderate efficacy”. Besides, in data set [1], the “Content after 15 mins (% of initial)” value is on record as 100 % of initial, the “Contents after 60 mins (% of initial)” value is on record as 100 % of initial, the Initial content is recorded as 10.0 mg/mL and the “stability to autoclaving (in words)” value is on record as “good stability with no change in preservative content”.

The values above are taken from patent US20010020029A1, “New multidose vial formulations for administering endo-N-(9-methyl-9-azabicyclo[3.3.1]non-3-yl)-1-methyl-1H- indazole-3-carboxamide hydrochloride” (SmithKline Beecham p.l.c., priority 1998, published 2001).
